# Values quoted from earlier work in patent US20200316072A1, “COMPOUNDS FOR USE IN REGULATING FOLLICLE MATURATION” (AARHUS UNIVERSITET, priority 2017, published 2020).
# Tested on: IGF/Akt/mTOR signaling pathway
# Details: stated as prior knowledge on the DPP4 inhibitor; test system not given
smiles,measurement,value
"CC#CCn1c(N2CCC[C@@H](N)C2)nc2c1c(=O)n(Cc1nc(C)c3ccccc3n1)c(=O)n2C [Linagliptin, 8-[(3R)-3-aminopiperidin-1-yl]-7-but-2-ynyl-3-methyl-1-[(4-methylquinazolin-2-yl)methyl]purine-2,6-dione]",phosphorylated protein expression of IGF/Akt/mTOR signaling pathway,alleviated
